Measurements as given in article PMC6979384, “Characterization of the plant homeodomain (PHD) reader family for their histone tail interactions” (Epigenetics & Chromatin, 2020).
Blank lines part the entries; values can stand above or below the substance they belong to. Where no end group is shown, it is not given here. [ ]: non-standard residue; d: D form. pS = N[C@@H](COP(=O)(O)O)C(=O)O

Experiments:
Experiment in all cases: Histone peptide microarray
Assay type in all cases: binding, human
[1] = system: RAG2
How it was run: (§1)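 Histone peptide library (293 synthetic peptides, single/combinatorial PTMs) arrayed and probed with 0.5 μM purified GST-PHD domain; optimized protocol; quadruplicate mean and SD reported.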

[2] = system: BPTF (PB)
How it was run: as §1

[3] = system: AIRE (PP)
How it was run: as §1

[4] = system: CHD5 (PPCC)
How it was run: as §1

[5] = system: PHF8
How it was run: as §1

[6] = system: KDM7A
How it was run: as §1

[7] = system: SP140L
How it was run: as §1

[8] = system: ING4
How it was run: as §1

[9] = system: PHF13
How it was run: as §1

[10] = system: DPF2 (PPC2W2)
How it was run: as §1

[11] = system: TAF3
How it was run: as §1

[12] = system: PHF21A
How it was run: as §1

[13] = system: PHF2
How it was run: as §1

[14] = system: PHF23
How it was run: as §1

[15] = system: ING3
How it was run: as §1

[16] = system: BAZ2B
How it was run: as §1

[17] = system: MLL5
How it was run: as §1

[18] = system: CHD5 (PCC)
How it was run: as §1

[19] = system: ING1
How it was run: as §1

[20] = system: PHRF1 (RP)
How it was run: as §1

[21] = system: KDM5A (1)
How it was run: as §1

[22] = system: KDM4C (TTP)
How it was run: as §1

[23] = system: CHD4 (PPCC)
How it was run: as §1

[24] = system: DIDO1
How it was run: as §1

[25] = system: KDM5B (3)
How it was run: as §1

[26] = system: ING5
How it was run: as §1

[27] = system: KDM5B (1)
How it was run: as §1

[28] = system: ING2
How it was run: as §1

[29] = system: TRIM66 (PB)
How it was run: as §1

[30] = system: KDM5A (3)
How it was run: as §1

[31] = system: MORC3 (CW)
How it was run: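 Purified PHD finger domains fused to GST are screened against 293 synthetic histone peptides bearing one or several post-translational modifications. The protein is used at 0.5 μM, and the signal from four replicate arrays is averaged, with standard deviation given.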

Array Heatmap value (peptide array binding signal) ([1]; RAG2, GST-tagged, arrays performed twice, n of 4): 0.2266 | Array Heatmap value (peptide array binding signal) ([2]; BPTF (PB), GST-tagged, arrays performed twice, n of 4): 0.2697 | Array Heatmap value (peptide array binding signal) ([3]; AIRE (PP), GST-tagged, arrays performed twice, n of 4): 0.2932 | Array Heatmap value (peptide array binding signal) ([4]; CHD5 (PPCC), GST-tagged, arrays performed twice, n of 4): 0.3972 | Array Heatmap value (peptide array binding signal) ([5]; PHF8, GST-tagged, arrays performed twice, n of 4): 0.2793 | Array Heatmap value (peptide array binding signal) ([6]; KDM7A, GST-tagged, arrays performed twice, n of 4): 0.2299 | Array Heatmap value (peptide array binding signal) ([7]; SP140L, GST-tagged, arrays performed twice, n of 4): 0.2923 | Array Heatmap value (peptide array binding signal) ([8]; ING4, GST-tagged, arrays performed twice, n of 4): 0.3411 | Array Heatmap value (peptide array binding signal) ([9]; PHF13, GST-tagged, arrays performed twice, n of 4): 0.4493 | Array Heatmap value (peptide array binding signal) ([10]; DPF2 (PPC2W2), GST-tagged, arrays performed twice, n of 4): 0.5432 | Array Heatmap value (peptide array binding signal) ([11]; TAF3, GST-tagged, arrays performed twice, n of 4): 0.2127 | Array Heatmap value (peptide array binding signal) ([12]; PHF21A, GST-tagged, arrays performed twice, n of 4): 0.3599 | Array Heatmap value (peptide array binding signal) ([13]; PHF2, GST-tagged, arrays performed twice, n of 4): 0.5004 | Array Heatmap value (peptide array binding signal) ([14]; PHF23, GST-tagged, arrays performed twice, n of 4): 0.4819 | Array Heatmap value (peptide array binding signal) ([15]; ING3, GST-tagged, arrays performed twice, n of 4): 0.3526 | Array Heatmap value (peptide array binding signal) ([16]; BAZ2B, GST-tagged, arrays performed twice, n of 4): 0.3559 | Array Heatmap value (peptide array binding signal) ([17]; MLL5, GST-tagged, arrays performed twice, n of 4): 0.4623 | Array Heatmap value (peptide array binding signal) ([18]; CHD5 (PCC), GST-tagged, arrays performed twice, n of 4): 0.6294 | Array Heatmap value (peptide array binding signal) ([19]; ING1, GST-tagged, arrays performed twice, n of 4): 0.485 | Array Heatmap value (peptide array binding signal) ([20]; PHRF1 (RP), GST-tagged, arrays performed twice, n of 4): 0.3697 | Array Heatmap value (peptide array binding signal) ([21]; KDM5A (1), GST-tagged, arrays performed twice, n of 4): 0.3412 | Array Heatmap value (peptide array binding signal) ([22]; KDM4C (TTP), GST-tagged, arrays performed twice, n of 4): 0.3213 | Array Heatmap value (peptide array binding signal) ([23]; CHD4 (PPCC), GST-tagged, arrays performed twice, n of 4): 0.4644 | Array Heatmap value (peptide array binding signal) ([24]; DIDO1, GST-tagged, arrays performed twice, n of 4): 0.6049 | Array Heatmap value (peptide array binding signal) ([25]; KDM5B (3), GST-tagged, arrays performed twice, n of 4): 0.3803 | Array Heatmap value (peptide array binding signal) ([26]; ING5, GST-tagged, arrays performed twice, n of 4): 0.2521 | Array Heatmap value (peptide array binding signal) ([27]; KDM5B (1), GST-tagged, arrays performed twice, n of 4): 0.5673 | Array Heatmap value (peptide array binding signal) ([28]; ING2, GST-tagged, arrays performed twice, n of 4): 0.5878 | Array Heatmap value (peptide array binding signal) ([29]; TRIM66 (PB), GST-tagged, arrays performed twice, n of 4): 0.4856 | Array Heatmap value (peptide array binding signal) ([30]; KDM5A (3), GST-tagged, arrays performed twice, n of 4): 0.4071 | Array Heatmap value (peptide array binding signal) ([31]; MORC3 (CW), GST-tagged, arrays performed twice, n of 4): 0.3086
Substance: H2AS1p + K5ac: H2A 1-17 ([pS]GRGK(Ac)QGGKARAKAKTR; UniProt P0C0S8 2-18, looked up, fragment)

Substance: H3K18ac: H3 1-20 [Peptide H3K18ac]
Array Heatmap signal (histone peptide microarray) ([1]; GST-tagged RAG2, sheet Array Heatmap, each array performed twice, total n = 4): 0.2722 | Array Heatmap signal (histone peptide microarray) ([2]; GST-tagged BPTF (PB = PHD + Bromodomain), sheet Array Heatmap, each array performed twice, total n = 4): 0.3398 | Array Heatmap signal (histone peptide microarray) ([3]; GST-tagged AIRE (PP), sheet Array Heatmap, each array performed twice, total n = 4): 0.6319 | Array Heatmap signal (histone peptide microarray) ([4]; GST-tagged CHD5 (PPCC = Dual PHD + Dual Chromodomain), sheet Array Heatmap, each array performed twice, total n = 4): 0.5749 | Array Heatmap signal (histone peptide microarray) ([5]; GST-tagged PHF8, sheet Array Heatmap, each array performed twice, total n = 4): 0.3469 | Array Heatmap signal (histone peptide microarray) ([6]; GST-tagged KDM7A, sheet Array Heatmap, each array performed twice, total n = 4): 0.36 | Array Heatmap signal (histone peptide microarray) ([7]; GST-tagged SP140L, sheet Array Heatmap, each array performed twice, total n = 4): 0.3771 | Array Heatmap signal (histone peptide microarray) ([8]; GST-tagged ING4, sheet Array Heatmap, each array performed twice, total n = 4): 0.4378 | Array Heatmap signal (histone peptide microarray) ([9]; GST-tagged PHF13, sheet Array Heatmap, each array performed twice, total n = 4): 0.6049 | Array Heatmap signal (histone peptide microarray) ([10]; GST-tagged DPF2 (PPC2W2 = Dual PHD + C2W2-type Zn-finger), sheet Array Heatmap, each array performed twice, total n = 4): 0.8135 | Array Heatmap signal (histone peptide microarray) ([11]; GST-tagged TAF3, sheet Array Heatmap, each array performed twice, total n = 4): 0.3122 | Array Heatmap signal (histone peptide microarray) ([12]; GST-tagged PHF21A, sheet Array Heatmap, each array performed twice, total n = 4): 0.4738 | Array Heatmap signal (histone peptide microarray) ([13]; GST-tagged PHF2, sheet Array Heatmap, each array performed twice, total n = 4): 0.5028 | Array Heatmap signal (histone peptide microarray) ([14]; GST-tagged PHF23, sheet Array Heatmap, each array performed twice, total n = 4): 0.5309 | Array Heatmap signal (histone peptide microarray) ([15]; GST-tagged ING3, sheet Array Heatmap, each array performed twice, total n = 4): 0.4594 | Array Heatmap signal (histone peptide microarray) ([16]; GST-tagged BAZ2B, sheet Array Heatmap, each array performed twice, total n = 4): 0.4617 | Array Heatmap signal (histone peptide microarray) ([17]; GST-tagged MLL5, sheet Array Heatmap, each array performed twice, total n = 4): 0.5221 | Array Heatmap signal (histone peptide microarray) ([18]; GST-tagged CHD5 (PCC = PHD + Dual Chromodomain), sheet Array Heatmap, each array performed twice, total n = 4): 0.8176 | Array Heatmap signal (histone peptide microarray) ([19]; GST-tagged ING1, sheet Array Heatmap, each array performed twice, total n = 4): 0.5131 | Array Heatmap signal (histone peptide microarray) ([20]; GST-tagged PHRF1 (RP), sheet Array Heatmap, each array performed twice, total n = 4): 0.9005 | Array Heatmap signal (histone peptide microarray) ([21]; GST-tagged KDM5A (1), sheet Array Heatmap, each array performed twice, total n = 4): 0.495 | Array Heatmap signal (histone peptide microarray) ([22]; GST-tagged KDM4C (TTP = Tandem Tudor domain + PHD), sheet Array Heatmap, each array performed twice, total n = 4): 0.5068 | Array Heatmap signal (histone peptide microarray) ([23]; GST-tagged CHD4 (PPCC = Dual PHD + Dual Chromodomain), sheet Array Heatmap, each array performed twice, total n = 4): 0.5741 | Array Heatmap signal (histone peptide microarray) ([24]; GST-tagged DIDO1, sheet Array Heatmap, each array performed twice, total n = 4): 0.6541 | Array Heatmap signal (histone peptide microarray) ([25]; GST-tagged KDM5B (3), sheet Array Heatmap, each array performed twice, total n = 4): 0.5801 | Array Heatmap signal (histone peptide microarray) ([26]; GST-tagged ING5, sheet Array Heatmap, each array performed twice, total n = 4): 0.3604 | Array Heatmap signal (histone peptide microarray) ([27]; GST-tagged KDM5B (1), sheet Array Heatmap, each array performed twice, total n = 4): 0.7147 | Array Heatmap signal (histone peptide microarray) ([28]; GST-tagged ING2, sheet Array Heatmap, each array performed twice, total n = 4): 0.5886 | Array Heatmap signal (histone peptide microarray) ([29]; GST-tagged TRIM66 (PB = PHD + Bromodomain), sheet Array Heatmap, each array performed twice, total n = 4): 0.7719 | Array Heatmap signal (histone peptide microarray) ([30]; GST-tagged KDM5A (3), sheet Array Heatmap, each array performed twice, total n = 4): 0.7024 | Array Heatmap signal (histone peptide microarray) ([31]; GST-tagged MORC3 (CW = CW-type Zn-finger), sheet Array Heatmap, each array performed twice, total n = 4): 0.6663
